Assay results reported in PubChem BioAssay (NCI).
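Exposure lasted 48 hours, with cells grown in 96-well plates and compounds tested at five concentrations. The concentration for 50% growth inhibition is given as GI50. TGI is the concentration that stops growth completely.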

Assays:
Experiment in all cases: NCI-60 cell line screen, 48 h
A498 renal = tested on: A498 renal
ACHN renal = tested on: ACHN renal
HCT-116 colon = tested on: HCT-116 colon
HCT-15 colon = tested on: HCT-15 colon
MDA-MB-231 breast = tested on: MDA-MB-231 breast
NCI-H460 lung = tested on: NCI-H460 lung
NCI/ADR-RES ovarian = tested on: NCI/ADR-RES ovarian
OVCAR-4 ovarian = tested on: OVCAR-4 ovarian
SK-MEL-5 melanoma = tested on: SK-MEL-5 melanoma
TK-10 renal = tested on: TK-10 renal

CN1CCN(C(=O)OCc2nc3c(N4CCOCC4)nc(-c4ccccc4)nc3n2C)CC1
GI50 (A498 renal): 1.53 µM
TGI (A498 renal): 2.91 µM
GI50 (ACHN renal): 0.544 µM
TGI (ACHN renal): 1.77 µM
GI50 (HCT-116 colon): 0.207 µM
TGI (HCT-116 colon): 0.648 µM
GI50 (HCT-15 colon): 0.317 µM
TGI (HCT-15 colon): 1.26 µM
GI50 (MDA-MB-231 breast): 1.09 µM
TGI (MDA-MB-231 breast): 2.37 µM
GI50 (NCI-H460 lung): 1.48 µM
TGI (NCI-H460 lung): 3.06 µM
GI50 (NCI/ADR-RES ovarian): 1.82 µM
TGI (NCI/ADR-RES ovarian): 6.03 µM
GI50 (OVCAR-4 ovarian): 1.2 µM
TGI (OVCAR-4 ovarian): 2.65 µM
GI50 (SK-MEL-5 melanoma): 1.5 µM
TGI (SK-MEL-5 melanoma): 2.85 µM
GI50 (TK-10 renal): 1.67 µM
TGI (TK-10 renal): 3.12 µM

CC(=O)N[C@@H](Cc1ccc(OP(=O)(O)O)cc1)C(=O)N[C@H]1CCC(=O)N2CCC[C@@H](C(=O)NCc3cccc4ccccc34)N2C1=O
GI50 (A498 renal): > 25 µM
TGI (A498 renal): > 25 µM
GI50 (ACHN renal): > 25 µM
TGI (ACHN renal): > 25 µM
GI50 (HCT-116 colon): > 25 µM
TGI (HCT-116 colon): > 25 µM
GI50 (HCT-15 colon): > 25 µM
TGI (HCT-15 colon): > 25 µM
GI50 (MDA-MB-231 breast): > 25 µM
TGI (MDA-MB-231 breast): > 25 µM
GI50 (NCI-H460 lung): > 25 µM
TGI (NCI-H460 lung): > 25 µM
GI50 (NCI/ADR-RES ovarian): > 25 µM
TGI (NCI/ADR-RES ovarian): > 25 µM
GI50 (OVCAR-4 ovarian): > 25 µM
TGI (OVCAR-4 ovarian): > 25 µM
GI50 (SK-MEL-5 melanoma): > 25 µM
TGI (SK-MEL-5 melanoma): > 25 µM
GI50 (TK-10 renal): > 25 µM
TGI (TK-10 renal): > 25 µM

O=C(CSc1nc2ccc([N+](=O)[O-])cc2[nH]1)Nc1ccc([N+](=O)[O-])cc1
GI50 (A498 renal): 1.34 µM
TGI (A498 renal): 3.8 µM
GI50 (ACHN renal): 2.49 µM
TGI (ACHN renal): 8.02 µM
GI50 (HCT-116 colon): 2.7 µM
TGI (HCT-116 colon): > 32.6 µM
GI50 (HCT-15 colon): 2.93 µM
TGI (HCT-15 colon): 17.6 µM
GI50 (MDA-MB-231 breast): 2.08 µM
TGI (MDA-MB-231 breast): 6.31 µM
GI50 (NCI-H460 lung): 2.9 µM
TGI (NCI-H460 lung): 12.3 µM
GI50 (NCI/ADR-RES ovarian): 2.46 µM
TGI (NCI/ADR-RES ovarian): 8.19 µM
GI50 (OVCAR-4 ovarian): 1.92 µM
TGI (OVCAR-4 ovarian): 29.3 µM
GI50 (SK-MEL-5 melanoma): 1.2 µM
TGI (SK-MEL-5 melanoma): 2.54 µM
GI50 (TK-10 renal): 3.47 µM
TGI (TK-10 renal): 11 µM

CC(C)c1ccc2c(c1)CCC1C(C)(CN)CCCC21C (stereo not drawn)
TGI (A498 renal): 2.78 µM
TGI (ACHN renal): 3.09 µM
TGI (HCT-116 colon): 2.93 µM
TGI (HCT-15 colon): 3.17 µM
TGI (MDA-MB-231 breast): 2.95 µM
TGI (NCI-H460 lung): 2.6 µM
TGI (NCI/ADR-RES ovarian): 3.61 µM
TGI (OVCAR-4 ovarian): 2.72 µM
TGI (SK-MEL-5 melanoma): 3.17 µM
TGI (TK-10 renal): 3.08 µM

Cc1cc(C)c2c(=O)cc(-c3ccc(F)cc3)[nH]c2n1
TGI (A498 renal): 99.5 µM
TGI (ACHN renal): > 100 µM
GI50 (HCT-116 colon): 50 µM
TGI (HCT-116 colon): > 100 µM
TGI (HCT-15 colon): > 100 µM
TGI (MDA-MB-231 breast): > 100 µM
GI50 (NCI-H460 lung): 51.6 µM
TGI (NCI-H460 lung): > 100 µM
TGI (NCI/ADR-RES ovarian): > 100 µM
TGI (OVCAR-4 ovarian): 48.3 µM
GI50 (SK-MEL-5 melanoma): 26.2 µM
TGI (SK-MEL-5 melanoma): 75.8 µM
TGI (TK-10 renal): > 100 µM

CSc1nc(SC)c2cnn(-c3ccnc4cc(Cl)ccc34)c2n1
GI50 (A498 renal): > 100 µM
TGI (A498 renal): > 100 µM
GI50 (ACHN renal): 42 µM
TGI (ACHN renal): > 86.8 µM
GI50 (HCT-116 colon): 52.9 µM
TGI (HCT-116 colon): > 100 µM
GI50 (HCT-15 colon): > 71.3 µM
TGI (HCT-15 colon): > 100 µM
GI50 (MDA-MB-231 breast): 20 µM
TGI (MDA-MB-231 breast): 67.4 µM
GI50 (NCI-H460 lung): 9.36 µM
TGI (NCI-H460 lung): > 45.6 µM
GI50 (NCI/ADR-RES ovarian): 51.2 µM
TGI (NCI/ADR-RES ovarian): > 100 µM
GI50 (OVCAR-4 ovarian): > 100 µM
TGI (OVCAR-4 ovarian): > 100 µM
GI50 (SK-MEL-5 melanoma): 51.9 µM
TGI (SK-MEL-5 melanoma): > 100 µM
GI50 (TK-10 renal): 30.9 µM
TGI (TK-10 renal): > 89.1 µM

Clc1ccc(Nc2ncnc3ccccc23)cc1
GI50 (A498 renal): 17.6 µM
TGI (A498 renal): 85.8 µM
GI50 (ACHN renal): 11.1 µM
TGI (ACHN renal): 71.7 µM
GI50 (HCT-116 colon): 81.5 µM
TGI (HCT-116 colon): > 100 µM
GI50 (HCT-15 colon): 25.2 µM
TGI (HCT-15 colon): > 100 µM
GI50 (MDA-MB-231 breast): > 100 µM
TGI (MDA-MB-231 breast): > 100 µM
GI50 (NCI-H460 lung): 43.7 µM
TGI (NCI-H460 lung): > 100 µM
GI50 (NCI/ADR-RES ovarian): 53.7 µM
TGI (NCI/ADR-RES ovarian): > 100 µM
GI50 (OVCAR-4 ovarian): > 100 µM
TGI (OVCAR-4 ovarian): > 100 µM
GI50 (SK-MEL-5 melanoma): 21.6 µM
TGI (SK-MEL-5 melanoma): 56.1 µM
GI50 (TK-10 renal): 2.79 µM
TGI (TK-10 renal): 31 µM
